The values below come from publication PMC4122359, “Conformational Dynamics of Escherichia coli Flavodoxins in Apo- and Holo-States by Solution NMR Spectroscopy” (PLoS ONE, 2014).

The target of experiment [1] is T1, FldA (Escherichia coli, UniProt P61949).
T1 construct: monomer; long-chain flavodoxin
T1 sequence (P61949 1-176): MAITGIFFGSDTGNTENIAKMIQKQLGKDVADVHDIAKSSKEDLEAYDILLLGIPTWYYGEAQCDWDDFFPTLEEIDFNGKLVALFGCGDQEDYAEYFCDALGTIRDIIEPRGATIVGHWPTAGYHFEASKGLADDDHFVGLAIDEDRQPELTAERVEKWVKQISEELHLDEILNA
Briefly: solution NMR structure of holo-form; […] HSQC titration. The format is binding. The following applies: oxidized FMN, non-covalent; pH 7.0, 30 mM sodium phosphate, 30 mM NaCl, 25 °C.

Experiment [2] addresses T2, YqcA (Escherichia coli, UniProt P65367).
T2 construct: monomer; short-chain flavodoxin
Described as above. Conditions: oxidized FMN, non-covalent; slow exchange; pH 7.0, 30 mM sodium phosphate, 30 mM NaCl, 25 °C. It counts as binding.

T2 sequence (P65367 whole entry): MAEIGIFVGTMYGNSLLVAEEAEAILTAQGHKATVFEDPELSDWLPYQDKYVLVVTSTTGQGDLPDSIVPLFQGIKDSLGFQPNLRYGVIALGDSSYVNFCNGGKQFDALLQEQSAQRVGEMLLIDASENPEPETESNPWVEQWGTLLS

For `Cc1cc2nc3c(=O)[nH]c(=O)nc-3n(C[C@H](O)[C@H](O)[C@H](O)COP(=O)(O)O)c2cc1C` [FMN], the “solution NMR structure of holo-form; 15N HSQC titration” value in experiment [1] is on record as “FMN titration experiments were performed with FldA”; in experiment [2] it was “These results demonstrate that YqcA binds FMN with high affinity”.
